Experimental data reported in patent US9777008B2, “PRMT5 inhibitors and uses thereof” (Epizyme, Inc., priority 2012, dated 2017).

System: symmetric di-methyl arginine in Z-138 cells
Test: Z-138 Methylation Assay (In Cell Western for symmetric di-methyl arginine and DNA content)
Type: cell-based
Conditions: read-out: ICW EC50
Description: [formula] [formula] Where top and bottom are the normally allowed to float, but may be fixed at 100 or 0 respectively in a 3-parameter fit. The Hill Coefficient normally allowed to float but may also be fixed at 1 in a 3-parameter fit. Y is the % inhibition and X is the compound concentration. Z-138 Methylation Assay
Z-138 suspension cells were purchased from ATCC (American Type Culture Collection, Manassas, Va.). RPMI/Glutamax medium, penicillin-streptomycin, heat inactivated fetal bovine serum, and D-PBS were purchased from Life Technologies, Grand Island, N.Y., USA. Odyssey blocking buffer, 800CW goat anti-rabbit IgG (H+L) antibody, and Licor Odyssey infrared scanner were purchased from Licor Biosciences, Lincoln, Nebr., USA. Symmetric di-methyl arginine antibody was purchased from EMD Millipore, Billerica, Mass., USA. 16% Paraformaldehyde was purchased from Electron Microscopy Sciences, Hatfield, Pa., USA. Z-138 suspension cells were maintained in growth medium (RPMI 1640 supplemented with 10% v/v heat inactivated fetal bovine serum and 100 units/mL penicillin-streptomycin) and cultured at 37° C. under 5% CO2.
Cell Treatment, in Cell Western (ICW) for Detection of Symmetric Di-Methyl Arginine and DNA Content.
Z-138 cells were seeded in assay medium at a concentration of 50,000 cells per mL to a 384-well cell culture plate with 50 μL per well. Compound (100 nL) from 384 well source plates was added directly to 384 well cell plate. Plates were incubated at 37° C., 5% CO2 for 96 hours. […]
First, the ratio for each well was determined by:
Each plate included fourteen control wells of DMSO only treatment (minimum inhibition) as well as fourteen control wells for maximum inhibition treated with 3 μM of a reference compound (Background wells). The average of the ratio values for each control type was calculated and used to determine the percent inhibition for each test well in the plate. […] Percent inhibition was determined and IC50 curves were generated using triplicate wells per concentration of compound. […]

Compound	EC50
OC(COc1cccc(-c2ccc3cn[nH]c3c2)c1)CN1CCc2ccccc2C1 (centres unmarked) [Compound 58, 1-(3-(1H-indazol-6-yl)phenoxy)-3-(3,4-dihydroisoquinolin-2(1H)-yl)propan-2-ol]	1 to 10 µM
N-(3-(3-(3,4-dihydroisoquinolin-2(1H)-yl)-2-hydroxypropoxy)phenyl)pyrimidine-5-carboxamide [Compound 145]	1 to 10 µM
